# From US20260191818A1 (University of South Carolina, priority 2022, published 2026)
# How the values were obtained:
# Type in all cases: in vivo, CD2F1 mice
# C26 tumor-bearing mice = C26 tumor-bearing mice given 5FU (cancer and chemotherapy-induced cachexia): body, tumor and tissue weights, food intake
# Procedure: Male (n=20) CD2F1 (CD2F1) hybrid mice were purchased from Charles River Laboratory (Raleigh, NC) at 10 weeks of age. Mice arrived at our facilities and were given AlN76 diet and allowed to acclimate to the new facilities and purified diet for 4 weeks. Mice were kept in ventilated cages (5 per cage), on a 12:12 h light/dark cycle, in a humidity and temperature control room (~22° C.) and given ad libitum access to water and food. Animal handling and experiments were performed to minimize pain and discomfort. […] Control mice were non-tumor-bearing mice given PBS i.p. and propylene glycol p.o. as vehicle controls. Body weights were measured daily. Food weights per cage were measured daily and average food intake was calculated by the difference in food weight between days. […] Hind limb muscles and select organs were excised, weighed, and snap frozen in liquid nitrogen while mice were under sedation (2% Isoflurane, 2 L/min O2). All procedures involving animals were reviewed and approved by the Institutional Animal Care and Usage Committee (IACUC) at the University of South Carolina in accordance with the American Association for Laboratory Animal Science. C26 (colon 26 adenocarcinoma) cells were gifted from Dr. Andrea Bonetto's laboratory and grown in complete DMEM (10% fetal bovine serum, 1% penicillin/streptomycin). Cells were split at 70% confluency and passage 3 was used for cell implantation. On Day 0, CD2F1 mice were given a subcutaneous injection of 1×10^6 C26 cells in the subscapular area as previously described. See, Bonetto, A., et al., The Colon-26 Carcinoma Tumor-bearing Mouse as a Model for the Study of Cancer Cachexia. J Vis Exp, 2016(117). Tumors were palpable at Day 8 in all C26 tumor-bearing mice. […] VWR; CAS #:51-21-8) was solubilized in warmed phosphate buffered saline (PBS) at 3.0 mg/mL, sterile filtered with a 0.2 μm filter and administered at the beginning of the light cycle (0700) via i.p. injection to mice with established tumor (day 11 after C26 implantation). […] Cancer Biol Ther, 2022. 23(1): p. 1-15; and […]., et al., The Acute Effects of 5 Fluorouracil on Skeletal Muscle Resident and Infiltrating Immune Cells in Mice. […] Data were analyzed using Prism 8 statistical software (GraphPad Software, CA, USA). […] The healthy controls are shown as a reference point but were not included in statistical analysis. Additionally, the C26 alone group was not included in analysis, but is shown as a reference point for tumor growth without chemotherapy intervention. Data are presented as the mean±SEM and the level of significance was set up at p<0.05.
# [1] = tested on: STAT3, P65/NFκβ, P38/MAPK; assay: Western blot of rectus femoris, inflammatory signaling proteins; conditions: C26+5FU+Quer vs C26+5FU
# Procedure: (§1) Protein isolation and western blotting was completed similar to what has been previously described. See, Sougiannis, A. T., et al., Impact of weight loss and partial weight regain on immune cell and inflammatory markers in adipose tissue in male mice. J Appl Physiol (1985), 2020. 129(4): p. 909-919. The rectus femoris (RF) was teased from the other quadriceps muscles, cut in half (proximal/distal), snap frozen in liquid nitrogen, and stored at −80° C. The distal RF was homogenized in Mueller Buffer (50 mM Hepes, 0.1% Triton-x, 4 mM EGTA, 10 mM EDTA, 15 mM Na4P207, 100 mM β-glycerophosphate, 25 mM NaF, and 5 mM NaVO4, with protease inhibitor cocktail) using a bead homogenizer at 4° C. Samples were centrifuged and the supernatant was collected and diluted with a diluent buffer (50% Glycerol, 50 mM Na4P2O7, 2.5 mM EGTA, and 1 mM β-mercaptoethanol with protease inhibitor cocktail). Protein concentrations were determined using the Bradford standard protein assay and protein integrity was confirmed with SDS-PAGE and amido black staining. Between 10-50 μg of muscle protein homogenate was separated via SDS-PAGE and transferred to a PVDF membrane. Membranes were stained with Ponceau Red to confirm even loading and transfer efficiency. Membranes were then washed with tris buffered saline with 0.1% Tween (TBST) before blocking for 1 h at room temp with 5% milk TBST. Membranes were then incubated in primary anti-body (Table 1, see FIG. 8) overnight at 4° C. under gentle agitation. Membranes were then washed 3×5 min and incubated with the appropriate (anti-mouse or rabbit) HRP-linked secondary in 5% milk TBST for 1 h at room temperature. After a final 3×5 min wash membranes were incubated in chemiluminescent HRP substrate before visualization with a Syngene G:box. Images were then scanned, and relative protein expression was determined with ImageJ. Investigator was blinded to sample loading scheme and images were cropped after analysis for representation. All samples (full Ns) were run together for each protein. Dotted lines indicate where gels were cropped.
# [2] = tested on: mitochondrial complexes I-V, VDAC, cytochrome c; assay: Western blot of rectus femoris, mitochondrial content proteins; conditions: C26+5FU+Quer vs C26+5FU; p=0.01
# Procedure: as §1, with “Membranes were then washed with tris buffered saline with 0.1% Tween (TBST) before blocking for 1 h at room temp with 5% milk TBST. Membranes were then incubated in primary anti-body (Table 1, see FIG. 8) overnight at 4° C. under gentle agitation. Membranes were then washed 3×5 min and incubated with the appropriate (anti-mouse or rabbit) HRP-linked secondary in 5% milk TBST for 1 h at room temperature. After a final 3×5 min wash membranes were incubated in chemiluminescent HRP substrate before visualization with a Syngene G:box.” left out, “Investigator was blinded to sample loading scheme and images were cropped after analysis for representation. All samples (full Ns) were run together for each protein. Dotted lines indicate where gels were cropped.” left out
# [3] = tested on: soleus muscle mitochondria; assay: Transmission electron microscopy of soleus muscle, mitochondrial number and size; conditions: C26+5FU+Quer vs C26+5FU
# Procedure: Mitochondrial number and size were assessed in the soleus muscle using transmission electron microscopy (TEM). Skeletal muscle was prepared for TEM as previously described. See, VanderVeen, B. N., et al., 5-Fluorouracil disrupts skeletal muscle immune cells and impairs skeletal muscle repair and remodeling. J Appl Physiol (1985), 2022. 133(4): p. 834-849. The soleus was excised and initially fixed in 2.5% EM-grade glutaraldehyde followed by a secondary fixation in 1% osmium tetroxide and 1.5% K+ ferricyanide. After dehydration with increasing concentrations of ethanol, the samples were transferred to acetonitrile and embedded in Polybed 812. Ultrathin (~70 nm) sections were cut with a Leica Reichert Ultracut R ultramicrotome (Leica Microsystems GmbH, Wetzlar, Germany), collected on copper grids and stained with uranyl acetate and lead citrate. A JEOL 1400+ transmission electron microscope (JEOL USA, Peabody, MA) was used to view sections, and digital images were obtained with an Advanced Microscopy Techniques XR 81 Camera (Advanced Microscopy Techniques, Woburn, MA). Tissues were searched for intact and aligned sarcomeres by an investigator blinded to the experimental groups. […] Mitochondrial size was calculated by circling discernible mitochondria with ImageJ within the F.O.V. and averaged across the multiple images within a single mouse.
compound,measurement,setting,value
"O=c1c(O)c(-c2ccc(O)c(O)c2)oc2cc(O)cc(O)c12 [quercetin, 3,4,5,7-pentahydroxylflavone]",greater EDL weight,"C26 tumor-bearing mice; C26+5FU+Quer vs C26+5FU, p=0.039",23.7%
same,greater gonadal fat pad weight,"C26 tumor-bearing mice; C26+5FU+Quer vs C26+5FU, p=0.04",50.0%
same,greater gastrocnemius weight,"C26 tumor-bearing mice; C26+5FU+Quer vs C26+5FU, p=0.055",13.9%
same,other measured muscle weights,"C26 tumor-bearing mice; C26+5FU+Quer vs C26+5FU, p=0.09-0.15",did not achieve statistically significant differences
same,greater RF (rectus femoris) weight,"C26 tumor-bearing mice; C26+5FU+Quer vs C26+5FU, quercetin 50 mg/kg p.o., p=0.02",14.4%
same,impact on body weight loss,"C26 tumor-bearing mice; mice given 5FU 30 mg/kg lean mass i.p., quercetin 50 mg/kg p.o. vs propylene glycol, daily from Day 11",no apparent impact
same,change in p/tP65,"[1]; increased, p=0.03",41.9%
same,change in phospho:total P38,[1]; p=0.19,−30.0%
same,change in phospho:total (p/t) STAT3,[1]; p=0.36,33.2%
same,change in expression of cytochrome c,[2],48.9%
same,greater number of mitochondria,"[3]; soleus TEM per F.O.V., p=0.04",89.6%
same,greater mitochondrial size,"[3]; soleus TEM, p>0.01 as printed",45.3%
